This passage reports IC50 results from patent US7074789B2, “Kinase inhibitors” (Amgen Inc., priority 1999, dated 2006).

Assay type in all cases: biochemical
In test [1] the target is T1, Lck (Homo sapiens, UniProt P06239).
T1 construct: Kinases are expressed as either kinase domains or full length constructs; made in house
Description: Kinase inhibition assay (33P transfer), Lck. The conditions noted are these: read-out: Lck-1. The method, boiled down:
(§1)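 GST/His-tagged kinase (domain or full length; E. coli or baculovirus) + [33P]ATP on plates coated with poly(Glu,Tyr) 4:1 or poly(Arg,Ser) 3:1; incubate, wash 0.5% H3PO4, add scintillant, count.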

In test [2] the target is T2, Lyn (Homo sapiens, UniProt P07948).
T2 construct: Kinases are expressed as either kinase domains or full length constructs; made in house
Description: Kinase inhibition assay (33P transfer), Lyn. To be noted: Table 6, Lyn-1 kinase inhibition class. Summed up: (§2)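 IC50: inhibitor concentration lowering 33P incorporation into immobilised substrate by 50%. Label transferred from ATP to poly(Glu,Tyr) 4:1 or poly(Arg,Ser) 3:1 is measured after a 0.5% phosphoric acid wash by liquid scintillation.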

Test [3] addresses T3, Src (Homo sapiens, UniProt P12931).
T3 construct: Kinases are expressed as either kinase domains or full length constructs; made in house
Nature of the test: Kinase inhibition assay (33P transfer), Src. The conditions noted are these: Table 6, Src-1 kinase inhibition class. The method, boiled down:
as §2

Test [4] addresses T4, Fyn (Homo sapiens, UniProt P06241).
T4 construct: Kinases are expressed as either kinase domains or full length constructs; made in house
Description: Kinase inhibition assay (33P transfer), Fyn. To be noted: read-out: Fyn-1. Summed up: as §2

The target of test [5] is T5, Zap-70 (Homo sapiens, UniProt P43403).
T5 construct: Kinases are expressed as either kinase domains or full length constructs; made in house
T5 sequence (P43403 1-619): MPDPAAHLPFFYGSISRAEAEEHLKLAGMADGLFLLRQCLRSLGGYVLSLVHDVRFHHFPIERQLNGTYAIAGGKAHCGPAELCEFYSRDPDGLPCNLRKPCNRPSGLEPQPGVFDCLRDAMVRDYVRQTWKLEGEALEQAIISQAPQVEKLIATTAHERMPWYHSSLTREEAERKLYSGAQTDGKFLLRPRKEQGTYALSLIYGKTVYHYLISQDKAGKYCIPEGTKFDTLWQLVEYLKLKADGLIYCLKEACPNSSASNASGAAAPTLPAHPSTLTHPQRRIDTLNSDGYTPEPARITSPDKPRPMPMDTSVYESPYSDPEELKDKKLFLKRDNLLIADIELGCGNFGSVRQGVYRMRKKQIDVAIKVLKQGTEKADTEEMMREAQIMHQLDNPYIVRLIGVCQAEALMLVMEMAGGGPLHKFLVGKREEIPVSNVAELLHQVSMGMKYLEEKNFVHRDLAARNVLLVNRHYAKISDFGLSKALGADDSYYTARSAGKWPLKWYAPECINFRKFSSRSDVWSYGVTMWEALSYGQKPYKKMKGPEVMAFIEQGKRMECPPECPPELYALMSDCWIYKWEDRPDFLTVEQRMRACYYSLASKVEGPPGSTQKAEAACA
Description: Kinase inhibition assay (33P transfer), Zap-70. To be noted: read-out: Zap-1. Summed up: as §1

In test [6] the target is T6, Itk (Homo sapiens, UniProt Q08881).
T6 construct: Kinases are expressed as either kinase domains or full length constructs; made in house
T6 sequence (Q08881 1-620): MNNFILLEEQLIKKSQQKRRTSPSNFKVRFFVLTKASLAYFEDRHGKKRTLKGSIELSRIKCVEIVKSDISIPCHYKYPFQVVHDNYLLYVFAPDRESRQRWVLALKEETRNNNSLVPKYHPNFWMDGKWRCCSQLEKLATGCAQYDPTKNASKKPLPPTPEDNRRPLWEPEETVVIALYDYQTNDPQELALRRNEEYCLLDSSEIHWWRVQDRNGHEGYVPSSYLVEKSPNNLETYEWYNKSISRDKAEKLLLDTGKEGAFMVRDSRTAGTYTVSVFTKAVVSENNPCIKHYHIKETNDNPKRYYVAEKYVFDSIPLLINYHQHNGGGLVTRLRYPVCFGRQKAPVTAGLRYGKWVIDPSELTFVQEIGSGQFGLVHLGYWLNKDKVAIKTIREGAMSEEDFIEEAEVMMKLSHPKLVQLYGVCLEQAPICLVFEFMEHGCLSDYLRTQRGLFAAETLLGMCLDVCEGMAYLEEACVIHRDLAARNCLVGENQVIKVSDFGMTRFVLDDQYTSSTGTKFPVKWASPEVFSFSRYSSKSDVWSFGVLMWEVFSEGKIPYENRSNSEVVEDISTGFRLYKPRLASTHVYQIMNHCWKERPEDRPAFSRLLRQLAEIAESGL
Description: Kinase inhibition assay (33P transfer), Itk. The conditions noted are these: read-out: Itk-1. The method, boiled down:
as §2

For test [7], the target named is T7, EGFR (Homo sapiens, UniProt P00533).
T7 construct: Kinases are expressed as either kinase domains or full length constructs; made in house
Nature of the test: Kinase inhibition assay (33P transfer), EGFR. To be noted: Table 2, kinase inhibition class; read-out: EGFR-1. The method, boiled down:
as §2

Test [8] has as its target T8, ErbB2 (Homo sapiens, UniProt P04626).
T8 construct: Kinases are expressed as either kinase domains or full length constructs; made in house
Description: Kinase inhibition assay (33P transfer), ErbB2. The conditions noted are these: read-out: ErbB2-2. The method, boiled down:
as §2

The target of test [9] is T9, Kdr (Homo sapiens, UniProt P35968).
T9 construct: Kinases are expressed as either kinase domains or full length constructs; made in house
Nature of the test: Kinase inhibition assay (33P transfer), Kdr. To be noted: read-out: KDR-1. The method, boiled down:
as §1

Test [10] deals with T10, Flt-1 (Homo sapiens, UniProt P17948).
T10 construct: Kinases are expressed as either kinase domains or full length constructs; made in house
T10 sequence (P17948 27-1338, species assumed): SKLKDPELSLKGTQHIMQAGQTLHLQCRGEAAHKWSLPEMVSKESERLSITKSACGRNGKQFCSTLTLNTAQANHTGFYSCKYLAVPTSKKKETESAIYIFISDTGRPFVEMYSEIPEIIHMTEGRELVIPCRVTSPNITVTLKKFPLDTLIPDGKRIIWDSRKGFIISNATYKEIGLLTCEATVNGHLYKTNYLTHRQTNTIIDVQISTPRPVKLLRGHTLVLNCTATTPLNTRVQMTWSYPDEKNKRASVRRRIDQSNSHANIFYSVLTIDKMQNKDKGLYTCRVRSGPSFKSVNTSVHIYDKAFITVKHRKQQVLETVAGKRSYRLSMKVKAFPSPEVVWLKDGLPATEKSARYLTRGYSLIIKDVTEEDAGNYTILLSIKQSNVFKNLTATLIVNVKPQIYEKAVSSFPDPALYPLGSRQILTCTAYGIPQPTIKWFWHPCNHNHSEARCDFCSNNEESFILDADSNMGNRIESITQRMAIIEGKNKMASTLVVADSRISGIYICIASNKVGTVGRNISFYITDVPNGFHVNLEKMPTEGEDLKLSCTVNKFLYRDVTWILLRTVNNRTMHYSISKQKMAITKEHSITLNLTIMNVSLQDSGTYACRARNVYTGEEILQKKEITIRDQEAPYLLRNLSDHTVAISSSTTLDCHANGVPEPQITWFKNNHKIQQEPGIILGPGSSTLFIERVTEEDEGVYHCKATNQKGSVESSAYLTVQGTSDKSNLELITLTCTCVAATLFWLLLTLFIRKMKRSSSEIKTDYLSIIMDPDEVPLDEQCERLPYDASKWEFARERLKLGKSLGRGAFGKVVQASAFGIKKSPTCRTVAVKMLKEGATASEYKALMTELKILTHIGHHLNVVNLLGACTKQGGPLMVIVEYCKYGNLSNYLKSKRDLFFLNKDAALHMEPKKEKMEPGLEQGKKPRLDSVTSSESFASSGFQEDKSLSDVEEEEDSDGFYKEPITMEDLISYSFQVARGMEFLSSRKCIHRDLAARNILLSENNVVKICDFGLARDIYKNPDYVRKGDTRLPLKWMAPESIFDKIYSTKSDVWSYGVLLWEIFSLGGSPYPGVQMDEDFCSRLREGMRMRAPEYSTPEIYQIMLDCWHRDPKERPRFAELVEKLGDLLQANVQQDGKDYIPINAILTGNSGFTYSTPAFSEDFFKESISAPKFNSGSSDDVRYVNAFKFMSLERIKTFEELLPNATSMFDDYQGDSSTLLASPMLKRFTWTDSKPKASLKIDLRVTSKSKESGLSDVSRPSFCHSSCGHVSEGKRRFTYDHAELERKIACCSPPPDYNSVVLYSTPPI
Description: Kinase inhibition assay (33P transfer), Flt-1. Summed up:
as §2

Test [11] deals with T11, Tek (Homo sapiens, UniProt Q02763).
T11 construct: Kinases are expressed as either kinase domains or full length constructs; made in house
Description: Kinase inhibition assay (33P transfer), Tek. The conditions noted are these: read-out: Tek-1. The method, boiled down:
as §2

In test [12] the target is T12, c-Met (Homo sapiens, UniProt P08581).
T12 construct: Kinases are expressed as either kinase domains or full length constructs; made in house
Nature of the test: Kinase inhibition assay (33P transfer), c-Met. To be noted: Table 2, kinase inhibition class; read-out: Met-1. Summed up:
as §2

In test [13] the target is T13, AKT (Homo sapiens, UniProt Q9Y243).
T13 construct: Kinases are expressed as either kinase domains or full length constructs; made in house
Nature of the test: Kinase inhibition assay (33P transfer), AKT. The conditions noted are these: Table 2, kinase inhibition class; read-out: AKT3-1. Summed up:
as §1

The target in test [14] is T14, IGFR-1 (Homo sapiens, UniProt P08069).
T14 construct: Kinases are expressed as either kinase domains or full length constructs; made in house
Description: Kinase inhibition assay, IGFR-1 (Table 2). To be noted: Table 2, kinase inhibition class.

The target of test [15] is T15, PDGFRB (Homo sapiens, UniProt P09619).
T15 construct: Kinases are expressed as either kinase domains or full length constructs; made in house
Nature of the test: Kinase inhibition assay (33P transfer), PDGFRB. The conditions noted are these: read-out: PDGFRB-1.

Test [16] deals with T16, Hck-1 (Homo sapiens, UniProt P08631).
T16 construct: Kinases are expressed as either kinase domains or full length constructs; made in house
T16 sequence (P08631 whole entry, the tested form may be a part): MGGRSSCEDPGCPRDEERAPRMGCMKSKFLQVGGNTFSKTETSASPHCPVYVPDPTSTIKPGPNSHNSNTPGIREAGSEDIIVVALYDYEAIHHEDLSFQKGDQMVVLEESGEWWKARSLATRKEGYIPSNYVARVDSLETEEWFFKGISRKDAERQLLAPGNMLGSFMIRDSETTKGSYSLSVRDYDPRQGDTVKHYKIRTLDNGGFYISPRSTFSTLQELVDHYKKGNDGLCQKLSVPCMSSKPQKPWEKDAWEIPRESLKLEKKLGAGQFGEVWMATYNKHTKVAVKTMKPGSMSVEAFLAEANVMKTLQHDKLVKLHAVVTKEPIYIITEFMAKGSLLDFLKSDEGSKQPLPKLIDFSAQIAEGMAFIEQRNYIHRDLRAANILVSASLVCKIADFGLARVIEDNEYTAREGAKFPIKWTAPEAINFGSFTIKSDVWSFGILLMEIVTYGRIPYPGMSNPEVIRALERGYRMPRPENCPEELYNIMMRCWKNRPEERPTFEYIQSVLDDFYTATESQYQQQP
Nature of the test: Kinase inhibition assay (33P transfer), Hck. The conditions noted are these: Table 6, Hck-1 kinase inhibition class.

Test [17] concerns the target T17, ErbB4 (Homo sapiens, UniProt Q15303).
T17 construct: Kinases are expressed as either kinase domains or full length constructs; made in house
Nature of the test: Kinase inhibition assay (33P transfer), ErbB4. To be noted: read-out: ErbB4-1.

Test [18] has as its target T18, Ret-1 (Homo sapiens, UniProt P07949).
T18 construct: Kinases are expressed as either kinase domains or full length constructs; made in house
Description: Kinase inhibition assay (33P transfer), Ret. To be noted: Table 6, Ret-1 kinase inhibition class.

For test [19], the target named is T19, FGFR1 (Homo sapiens, UniProt P11362).
T19 construct: Kinases are expressed as either kinase domains or full length constructs; made in house
T19 sequence (P11362 22-822, species assumed): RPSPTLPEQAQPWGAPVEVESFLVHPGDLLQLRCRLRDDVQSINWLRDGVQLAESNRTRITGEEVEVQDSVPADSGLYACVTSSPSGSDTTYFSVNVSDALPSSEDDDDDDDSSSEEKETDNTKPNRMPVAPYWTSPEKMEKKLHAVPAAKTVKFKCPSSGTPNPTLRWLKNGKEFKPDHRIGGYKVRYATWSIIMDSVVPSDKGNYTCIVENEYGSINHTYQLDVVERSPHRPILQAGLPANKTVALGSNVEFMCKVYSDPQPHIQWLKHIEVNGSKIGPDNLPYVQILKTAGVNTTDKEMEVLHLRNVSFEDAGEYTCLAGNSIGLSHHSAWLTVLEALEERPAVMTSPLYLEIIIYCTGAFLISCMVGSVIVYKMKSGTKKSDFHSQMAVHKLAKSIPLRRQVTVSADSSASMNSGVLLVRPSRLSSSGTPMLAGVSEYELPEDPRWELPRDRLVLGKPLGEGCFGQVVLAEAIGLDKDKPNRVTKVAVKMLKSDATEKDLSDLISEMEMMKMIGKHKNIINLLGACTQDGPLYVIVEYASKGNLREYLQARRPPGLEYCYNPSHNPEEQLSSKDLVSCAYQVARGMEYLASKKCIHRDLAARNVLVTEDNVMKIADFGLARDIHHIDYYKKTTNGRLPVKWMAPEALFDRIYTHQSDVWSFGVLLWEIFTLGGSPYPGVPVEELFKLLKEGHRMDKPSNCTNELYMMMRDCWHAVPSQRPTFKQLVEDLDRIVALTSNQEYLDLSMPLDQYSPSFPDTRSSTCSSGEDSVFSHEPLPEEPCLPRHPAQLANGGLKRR
Nature of the test: Kinase inhibition assay (33P transfer), FGFR1. The conditions noted are these: read-out: FGFR1-1.

T1 sequence (P06239 whole entry, species assumed, the tested form may be a part): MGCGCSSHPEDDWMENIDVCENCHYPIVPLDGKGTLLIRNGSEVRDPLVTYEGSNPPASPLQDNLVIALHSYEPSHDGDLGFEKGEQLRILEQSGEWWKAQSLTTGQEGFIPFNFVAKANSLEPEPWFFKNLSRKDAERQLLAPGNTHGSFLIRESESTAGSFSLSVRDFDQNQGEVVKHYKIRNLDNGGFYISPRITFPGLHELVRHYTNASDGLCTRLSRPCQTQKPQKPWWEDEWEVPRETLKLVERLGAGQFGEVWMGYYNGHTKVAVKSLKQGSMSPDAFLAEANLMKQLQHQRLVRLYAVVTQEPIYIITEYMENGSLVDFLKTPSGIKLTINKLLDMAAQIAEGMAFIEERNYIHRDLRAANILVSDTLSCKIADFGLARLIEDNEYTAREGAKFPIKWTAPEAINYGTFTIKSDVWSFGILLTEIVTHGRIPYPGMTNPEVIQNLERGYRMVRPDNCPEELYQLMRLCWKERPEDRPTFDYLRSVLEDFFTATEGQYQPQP
T17 sequence (Q15303 26-1308, species assumed): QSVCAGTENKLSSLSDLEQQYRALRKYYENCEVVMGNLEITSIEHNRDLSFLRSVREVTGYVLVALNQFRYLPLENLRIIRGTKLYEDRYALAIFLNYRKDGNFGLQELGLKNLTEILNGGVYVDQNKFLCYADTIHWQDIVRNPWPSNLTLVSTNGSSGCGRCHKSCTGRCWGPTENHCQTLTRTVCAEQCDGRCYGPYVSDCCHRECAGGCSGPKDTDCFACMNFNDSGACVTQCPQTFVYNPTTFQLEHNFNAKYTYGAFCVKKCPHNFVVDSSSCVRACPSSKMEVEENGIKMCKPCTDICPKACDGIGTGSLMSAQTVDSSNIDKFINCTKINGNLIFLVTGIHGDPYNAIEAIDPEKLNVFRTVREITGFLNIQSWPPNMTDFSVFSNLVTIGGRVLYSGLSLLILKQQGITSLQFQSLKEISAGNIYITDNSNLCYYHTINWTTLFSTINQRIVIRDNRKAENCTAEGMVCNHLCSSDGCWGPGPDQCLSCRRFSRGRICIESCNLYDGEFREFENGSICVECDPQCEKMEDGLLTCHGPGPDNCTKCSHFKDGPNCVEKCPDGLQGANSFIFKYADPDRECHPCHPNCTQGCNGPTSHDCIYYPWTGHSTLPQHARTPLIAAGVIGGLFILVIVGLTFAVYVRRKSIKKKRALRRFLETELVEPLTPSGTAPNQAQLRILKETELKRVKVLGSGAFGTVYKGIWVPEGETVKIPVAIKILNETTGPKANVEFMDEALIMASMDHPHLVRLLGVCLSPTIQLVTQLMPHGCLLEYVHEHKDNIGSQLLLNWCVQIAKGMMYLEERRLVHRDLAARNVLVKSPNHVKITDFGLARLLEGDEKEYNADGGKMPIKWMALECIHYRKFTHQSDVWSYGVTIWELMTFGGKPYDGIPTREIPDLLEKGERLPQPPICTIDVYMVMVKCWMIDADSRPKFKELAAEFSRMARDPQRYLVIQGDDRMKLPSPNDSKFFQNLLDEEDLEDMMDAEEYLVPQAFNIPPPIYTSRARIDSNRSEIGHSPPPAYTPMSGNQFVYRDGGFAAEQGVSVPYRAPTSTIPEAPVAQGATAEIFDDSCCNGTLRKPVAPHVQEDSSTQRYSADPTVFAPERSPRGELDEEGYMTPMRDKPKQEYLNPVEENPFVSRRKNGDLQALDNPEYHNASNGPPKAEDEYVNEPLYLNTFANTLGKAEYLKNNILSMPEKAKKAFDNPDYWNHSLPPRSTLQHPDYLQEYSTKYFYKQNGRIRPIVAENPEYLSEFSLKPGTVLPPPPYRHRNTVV
T4 sequence (P06241 whole entry, species assumed, the tested form may be a part): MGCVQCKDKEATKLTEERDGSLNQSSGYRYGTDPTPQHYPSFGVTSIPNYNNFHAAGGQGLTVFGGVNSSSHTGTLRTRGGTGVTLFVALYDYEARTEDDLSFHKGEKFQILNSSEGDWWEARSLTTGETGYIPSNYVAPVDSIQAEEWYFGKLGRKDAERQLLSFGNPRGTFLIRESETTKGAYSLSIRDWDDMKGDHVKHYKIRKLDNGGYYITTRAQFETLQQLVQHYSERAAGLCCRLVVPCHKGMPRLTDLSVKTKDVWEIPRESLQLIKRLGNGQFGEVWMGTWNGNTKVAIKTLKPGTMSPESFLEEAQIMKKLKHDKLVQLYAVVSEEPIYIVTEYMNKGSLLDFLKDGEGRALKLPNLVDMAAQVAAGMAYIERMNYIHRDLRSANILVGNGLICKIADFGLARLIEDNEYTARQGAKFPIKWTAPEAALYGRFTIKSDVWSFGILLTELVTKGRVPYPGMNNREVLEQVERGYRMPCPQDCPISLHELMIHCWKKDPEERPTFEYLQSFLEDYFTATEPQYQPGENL

Take `COc1cc(Nc2ncnc(N3CCCc4ccc(C(F)(F)F)cc43)n2)cc(OC)c1OC` [Compound 518]: the IC50 is over 9.75 µM in [1]; 0.867 to 5.2 µM in [2]; over 9.75 µM in [3]; 5.2 to 7.58 µM in test [4]; over 9.75 µM in test [5]; over 9.75 µM in test [6]. The IC50 in test [7] was under 0.867 µM; in test [8], 0.867 to 5.2 µM; in [9] it was 7.58 to 9.75 µM; in test [10] it was over 9.75 µM; in [11] it was 7.58 to 9.75 µM; in test [12], over 9.75 µM. In addition, the IC50 in test [13] was over 9.75 µM; in [14], over 9.75 µM; in [15], over 9.75 µM; in [16] it was over 9.75 µM; in [17], over 9.75 µM; in test [18] it was 7.58 to 9.75 µM. Besides, the IC50 in test [19] was over 9.75 µM.

`COc1cc(Nc2ncnc(-n3c(NCc4ccccn4)nc4ccccc43)n2)cc(OC)c1OCCN1CCOCC1` [Compound 519]: the IC50 in test [1] is 0.685 to 4.11 µM; in [2], 6 to 7.71 µM; in [3], over 7.71 µM; in [4], over 7.71 µM; in [5], over 7.71 µM; in test [6] it was over 7.71 µM. Further, the IC50 in test [7] was over 7.71 µM; in [8] it was over 7.71 µM; in [9], under 0.685 µM; in [10], 0.685 to 4.11 µM; in [11], over 7.71 µM; in [12] it was over 7.71 µM. In addition, the IC50 in [13] is over 7.71 µM; in [14], 0.685 to 4.11 µM; in test [15], under 0.685 µM; in test [16], over 7.71 µM; in test [17], over 7.71 µM; in test [18], under 0.685 µM. The IC50 in test [19] was under 0.685 µM.

On to `COc1cc(Nc2ncnc(N3c4ccccc4CC3C)n2)cc(OC)c1OC` (stereo not shown) [Compound 610], for which the IC50 in test [1] was under 1.02 µM; in [2] it was under 1.02 µM; in [3], 1.02 to 6.1 µM; in test [4], 1.02 to 6.1 µM; in test [5], over 11.4 µM; in [6], 1.02 to 6.1 µM. Besides, the IC50 was 1.02 to 6.1 µM in [7]; 1.02 to 6.1 µM in test [8]; under 1.02 µM in [9]; under 1.02 µM in [10]; 6.1 to 8.9 µM in [11]; 1.02 to 6.1 µM in [12]. Further, the IC50 is over 11.4 µM in [13]; 1.02 to 6.1 µM in test [14]; under 1.02 µM in test [15]; over 11.4 µM in test [16]; 1.02 to 6.1 µM in test [17]; under 1.02 µM in test [18]. The IC50 in [19] is under 1.02 µM.

In the case of `COc1cc(Nc2ncnc(N3c4ccccc4CCC3C)n2)cc(OC)c1OC` (stereo not shown) [Compound 612], the IC50 in [1] is under 0.982 µM; in test [2], 0.982 to 5.89 µM; in [3], 0.982 to 5.89 µM; in test [4], 0.982 to 5.89 µM; in test [5], 8.59 to 11 µM; in test [6] it was 0.982 to 5.89 µM. Also, the IC50 in test [7] is 0.982 to 5.89 µM; in [8], 0.982 to 5.89 µM; in test [9] it was under 0.982 µM; in test [10], under 0.982 µM; in [11] it was 0.982 to 5.89 µM; in test [12], under 0.982 µM. For the same compound, the IC50 in test [13] was over 11 µM; in test [14], 5.89 to 8.59 µM; in [15], 0.982 to 5.89 µM; in test [16] it was 8.59 to 11 µM; in [17], 0.982 to 5.89 µM; in test [18], 0.982 to 5.89 µM. The IC50 in [19] is under 0.982 µM.
